This note sets out measurements from patent publication US20210283089A1, “Use of fumaric acid esters and pharmaceutically acceptable salts thereof in preparing pharmaceuticals for treating ferroptosis-related diseases” (XIANGYA HOSPITAL CENTRAL SOUTH UNIVERSITY, priority 2018, published 2021).

In test [1] the test system is mouse liver of hepatic fibrosis model. Put plainly: Inhibition test of ferroptosis in mouse liver of hepatic fibrosis model. Format: in vivo, SD mice. The following applies: 15 mg/Kg or 25 mg/Kg, intragastric, once a day, 8 weeks; versus model group. How it is done:
36 7-week-old SPF-grade SD mice of 200-250 g are randomly divided into 4 groups, namely a control group, a model group, a model+low-dose dimethyl fumarate (15 mg/Kg) group and a model+high-dose dimethyl fumarate (25 mg/Kg) group. In the model group, subcutaneous injection of 0.3 ml/100 g of 40% CCI4 peanut oil solution is used for modeling twice a week. It is started from the second week, 10% alcohol is used as the only beverage, the mice are fed with a corn meal feed mixed with 0.5% cholesterol, and modeling is continuously performed for 8 weeks. At the same time of modeling, the model+administration group are respectively given with dimethyl fumarate (15 mg/Kg) and dimethyl fumarate (25 mg/Kg) once a day by intragastric administration for 8 consecutive weeks. After that, the mice are anesthetized with 5% chloral hydrate in abdominal cavity, and the liver tissues are collected, partly fixed in formalin, and partly stored in liquid nitrogen. Then the following tests are separately performed (the dimethyl fumarate in the drawings of the description is represented by DMF):
(§1) A specific method is as follows: a mouse liver tissue sample fixed in 10% formalin is dehydrated, paraffin-immersed and embedded, and the paraffin-embedded tissue is sectioned. […]
(§2) A specific method is as follows: the paraffin-embedded tissue sections are baked in a constant temperature oven at 65° C. for 60 min to dissolve the paraffin, and then sequentially put in xylene to dewax and be transparent, and hydrated in ethanol solution with the concentrations from high to low. After the tissue sections are rinsed with PBS solution, a reagent A in a ready-to-use immunohistochemical hypersensitive UltraSensitive™ SP kit (Maixin Biotech Company, KIT-9707) is respectively added dropwise to remove an endogenous peroxidase from the tissues, and a reagent B is blocked by goat serum. […]

For a further test, the system named is HepG2 cells. The experiment in a line: GSH and GSSG level determination test. The test is classed as cell-based, Human. The following applies: 10 μM and 30 μM, incubated 20 h; concentration-dependent. As to the method:
Human hepatocytes HepG2 and LO2 cells are obtained from the cell bank of Xiangya Hospital. The medium is DMEM medium (HyClone, SH30022.01) and RPMI medium (HyClone, SH30809.01) containing 10% fetal bovine serum (Gibco, 10091148) and 100 U/mL ampicillin+streptomycin double-antibody (Gibco, 10378016). The cell incubator conditions are 37° C., constant temperature and humidity, and constant carbon dioxide concentration of 5%. Monolayer adherent HepG2 cells are digested with a trypsin into single-cell suspension, and the cells are plated on a 96-well plate at 4000 cells/well. After the cells are adhered for 4-6 h, DMSO, 10 μM of dimethyl fumarate, 30 μM of dimethyl fumarate, 10 μM of monomethyl fumarate and 30 μM of monomethyl fumarate are respectively added to the cell culture plate, and incubated for 20 h, GSH/GSSG-Glo™ Assay Kit (Promega, V6611) is used to detect the total GSH and GSSH of the cells. Specific operations are performed according to the instructions, and the experiment is repeated for three times.

Test [2] relates to mouse liver of alcoholic fatty liver disease model. The experiment in a line: Inhibition test of ferroptosis in mouse liver of alcoholic fatty liver disease model. The test is classed as in vivo, C57BL/6 male mice. The following applies: 100 mg/Kg or 200 mg/Kg, intragastric, once a day, 10 consecutive days; versus model group. As to the method: 24 8-week-old SPF-grade C57BL/6 male mice are randomly divided into 4 groups, namely a blank group, a model group, a model+low-dose dimethyl fumarate (100 mg/Kg) group and a model+high-dose dimethyl fumarate (200 mg/Kg) group. The mice are let free to drink Lieber-DeCarli control diet for 5 days to gradually adapt to liquid diet and tube feeding. Subsequently, the model group is allowed to drink freely with 5% (volume/volume) standard Lieber-DeCarli alcohol liquid diet for 10 days, while the control group uses isocaloric control diet. From the 11-th day, the model+administration group is respectively administrated with dimethyl fumarate (100 mg/Kg) and dimethyl fumarate (200 mg/Kg) by intragastric administration once a day for 10 consecutive days. After that, the mice are anesthetized with 5% chloral hydrate in abdominal cavity, and liver tissues are collected, partly fixed in 10% formalin, and partly stored in liquid nitrogen. Then the following tests are separately performed (the dimethyl fumarate in the drawings of the description is represented by DMF):
as §1, §2

The test system of a further test is HepG2 and LO2 cells. The experiment in a line: Determination test of cell membrane lipid peroxidation level (MDA detection kit). The test is classed as cell-based, Human. The following applies: 6 h; for cell membrane lipid peroxidation level (stimulus alone): 80 mM ethanol or 10 μM DOX alone. As to the method: Human hepatocytes HepG2 and LO2 cells are obtained from the cell bank of Xiangya Hospital. The medium is DMEM medium (HyClone, SH30022.01) and RPMI medium (HyClone, SH30809.01) containing 10% fetal bovine serum (Gibco, 10091148) and 100 U/mL ampicillin+streptomycin double-antibody (Gibco, 10378016). The cell incubator conditions are 37° C., constant temperature and humidity, and constant carbon dioxide concentration of 5%. DMSO, 1 μM of Erastin, 80 mM of ethanol, 10 μM of DOX, 10 μM DOX+10 μM dimethyl fumarate, 10 μM DOX+10 μM monomethyl fumarate, 10 μM DOX+1 μM Ferrostatin-1, 80 mM ethanol+10 μM dimethyl fumarate, 80 mM ethanol+10 μM monomethyl fumarate, and 80 mM ethanol+1 μM Ferrostatin-1 are respectively added to monolayer adherent hepatocytes HepG2 and LO2 cells. After being incubated for 6 h, the cells are gently rinsed with PBS buffer pre-cooled at 4° C. for 3 times, and every 1 million cells are homogenized with 0.1 mL of IP lysate (Beyotime, […]), and supernatant is collected after centrifugation at 4° C. The cell membrane lipid peroxidation level is measured by MDA detection kit (Beyotime, […]), specific operations are performed according to the instructions, and the test is repeated for three times.

Test [3] deals with GPX4 protein level of HepG2 and LO2 cells. Put plainly: Western Blot test 1: GPX4 protein level, ethanol stimulation. Format: cell-based, Human. The following applies: 6 h.
Description: Human hepatocytes HepG2 and LO2 cells are obtained from the cell bank of Xiangya Hospital. The medium is DMEM medium (HyClone, SH30022.01) and RPMI medium (HyClone, SH30809.01) containing 10% fetal bovine serum (Gibco, 10091148) and 100 U/mL ampicillin+streptomycin double-antibody (Gibco, 10378016). The cell incubator conditions are 37° C., constant temperature and humidity, and constant carbon dioxide concentration of 5%. […] After being incubated for 6 h, the cells are gently rinsed with PBS buffer pre-cooled at 4° C. for 3 times, and then extracted for total protein of the cells with RI PA lysate (Beyotime, P0013B). Specific operations are performed according to the instructions. After the concentration of the extracted protein is determined by BCA protein concentration determination kit (Beyotime, [MUT]), it is stored at -20° C. for later use. Each group of protein sample and 2×Loading Buffer is prepared at a volume ratio of 1:1, and placed in a metal bath at 100° C. to boil and denature for 10 min, then placed on ice to cool for 5 min, and a sample is waited to be loaded. Specific operations are performed according to the instructions. The test is repeated for three times.
Test [4] shares this test system. Put plainly: Western Blot test 2: GPX4 protein level, DOX stimulation. Format: cell-based, Human. Conditions: 6 h. A general note: Immunoblotting shows a protein as a band on a membrane.
Description: The medium is DMEM medium (HyClone, SH30022.01) and RPMI medium (HyClone, SH30809.01) containing 10% fetal bovine serum (Gibco, 10091148) and 100 U/mL ampicillin+streptomycin double-antibody (Gibco, 10378016). The cell incubator conditions are 37° C., constant temperature and humidity, and constant carbon dioxide concentration of 5%. 10 μM of DOX, 10 μM DOX+10 μM dimethyl fumarate, 10 μM DOX+10 μM monomethyl fumarate, and 10 μM DOX+1 μM Ferrostatin-1 are respectively added to monolayer adherent hepatocytes HepG2 and LO2 cells. After being incubated for 6 h, the cells are gently rinsed with PBS buffer pre-cooled at 4° C. for 3 times, and then a total protein of the cells is extracted with RIPA lysate (Beyotime, P0013B). Specific operations are performed according to the instructions. After the concentration of the extracted protein is determined by BCA protein concentration determination kit (Beyotime, [MUT]), it is stored at -20° C. for later use. Each histone sample and 2×Loading Buffer are prepared at a volume ratio of 1:1, and placed in a metal bath at 100° C. to boil and denature for 10 min, then placed on ice to cool for 5 min, and a sample is waited to be loaded. Specific operations are performed according to the instructions. The test is repeated for three times.
Where [5] appears, read: 10 μM DOX + 10 μM test substance.
[6] abbreviates: 80 mM ethanol + 10 μM test substance.

Where a name gives a salt, the structure may show the parent alone.

On to `COC(=O)/C=C/C(=O)OC` [dimethyl fumarate, Dimethyl fumarate], for which, in test [1], the “liver 4-HNE protein level (immunohistochemistry)” value is “significantly down-regulated”; the “liver GPX4 protein level (immunohistochemistry)” value is “significantly up-regulated”; the “liver pathological changes (fatty degeneration, necrosis, periportal inflammation, fibrosis; H&E and Sirius Red staining)” value is on record as “significantly reduced”. In the test on HepG2 cells, the “GSH level of the HepG2 cells” value is listed as “significantly up-regulate” and the “GSSH level of the HepG2 cells” value is recorded as “significantly up-regulate”. In test [2], the “fatty degeneration of the hepatocytes and pericentral periphlebitis (H&E staining)” value is “significantly reduced”; the “liver 4-HNE protein level (immunohistochemistry)” value is on record as “significantly down-regulated”; the “liver GPX4 protein level (immunohistochemistry, Western blot)” value is reported as “significantly up-regulated”. Besides, the “cell membrane lipid peroxidation level caused by DOX” value in the test with HepG2 and LO2 cells (setting [5]) is listed as “significantly inhibit”. The “cell membrane lipid peroxidation level caused by ethanol” value in the test with HepG2 and LO2 cells (setting [6]) was “significantly inhibit”. Besides, the “GPX4 protein level of ethanol-stimulated cells” value in test [3] (setting [6]) is “significantly up-regulate”. Besides, in test [4] (setting [5]), the “GPX4 protein level of DOX-stimulated cells” value was “significantly up-regulate”.
With `COc1cccc2c1C(=O)c1c(O)c3c(c(O)c1C2=O)C[C@@](O)(C(=O)CO)C[C@@H]3O[C@H]1C[C@H](N)[C@H](O)[C@H](C)O1` [DOX, doxorubicin], in the test with HepG2 and LO2 cells, the “cell membrane lipid peroxidation level (stimulus alone)” value is given as “significantly up-regulate”. The “GPX4 protein level (DOX alone)” value in test [4] (10 μM DOX) is “significantly down-regulate”.
In the case of `CCO` [ethanol], the “cell membrane lipid peroxidation level (stimulus alone)” value in the test on HepG2 and LO2 cells is listed as “significantly up-regulate”. Besides, in test [3] (80 mM ethanol), the “GPX4 protein level (ethanol alone)” value is listed as “significantly down-regulate”.
